Source: patent US10898547B2, “Method of treatment of breast or colon cancer by administering muscle stimulated myokines” (Unicorn Therapeutics, LLC, priority 2016, dated 2021)

Tests used:
Format in all cases: cell-based
[1] = tested on: HT-29; test: 5′FU dosage determination in HT-29 cells, 96-well plate; settings: HT-29, after 48 hrs
[2] = tested on: Huh7; test: WST cellular proliferation assay in Huh7 HCC cells; settings: 24-48 hrs, sorafenib 1, 2 and 5 micromolar
[3] = tested on: HepG2; test: WST cellular proliferation assay in HepG2 HCC cells; settings: 24-48 hrs, sorafenib 1, 2 and 5 micromolar
[4] = tested on: HepG2; test: Western blot of metabolic markers (pAMPK, pAKT, pACC) in HepG2 cells; set-up: dose or concentration left out as unconfirmed; settings: HepG2, sorafenib (FIG. 6A)

| SMILES | concentration showing the best effect without suggestion of cytotoxicity [1] [µM] | cellular proliferation [2] | cellular proliferation [3] | pAMPK expression [4] |
| --- | --- | --- | --- | --- |
| O=c1[nH]cc(F)c(=O)[nH]1 [5′FU, 5-fluorouracil] | 25 |  |  |  |
| CNC(=O)c1cc(Oc2ccc(NC(=O)Nc3ccc(Cl)c(C(F)(F)F)c3)cc2)ccn1 [sorafenib] |  | decrease | decrease | increase |
